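Tested at 5 concentrations; 48 h exposure; 96-well plates; endpoints linearly interpolated, else capped at highest concentration. TGI: total growth inhibition.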
Experiments:
Assay in all cases: growth of human tumour cells (NCI), 48 h
[1] = test system: LOX IMVI melanoma
[2] = test system: OVCAR-3 ovarian
[3] = test system: SF-268 CNS
[4] = test system: CAKI-1 renal
[5] = test system: KM20L2 colon
[6] = test system: HCT-15 colon
[7] = test system: UACC-62 melanoma
[8] = test system: MALME-3M melanoma
[9] = test system: OVCAR-5 ovarian
[10] = test system: HCC-2998 colon
[11] = test system: LXFL 529 NSCLC
[12] = test system: HCT-116 colon
[13] = test system: UO-31 renal
[14] = test system: SF-295 CNS
[15] = test system: SK-OV-3 ovarian
[16] = test system: SNB-75 CNS
[17] = test system: IGROV1 ovarian
[18] = test system: NCI-H460 lung
[19] = test system: RPMI-8226 leukemia
[20] = test system: COLO 205 colon
[21] = test system: SK-MEL-5 melanoma
[22] = test system: A498 renal
[23] = test system: SK-MEL-28 melanoma
[24] = test system: NCI-H226 lung
[25] = test system: 786-0 renal
[26] = test system: HOP-18 NSCLC
[27] = test system: XF 498 CNS
[28] = test system: NCI-H23 lung
[29] = test system: M19-MEL melanoma
[30] = test system: OVCAR-4 ovarian
[31] = test system: TK-10 renal
[32] = test system: RXF-631 renal
[33] = test system: SF-539 CNS
[34] = test system: K-562 leukemia
[35] = test system: HOP-62 NSCLC
[36] = test system: HL-60(TB) leukemia
[37] = test system: DLD-1 colon
[38] = test system: SN12C renal
[39] = test system: OVCAR-8 ovarian
[40] = test system: EKVX NSCLC
[41] = test system: SW-620 colon
[42] = test system: M14 melanoma
[43] = test system: MOLT-4 leukemia
[44] = test system: SNB-78 CNS
[45] = test system: NCI-H522 lung
[46] = test system: SR leukemia
[47] = test system: RXF 393 renal
[48] = test system: CCRF-CEM leukemia
[49] = test system: ACHN renal
[50] = test system: DMS 273 small cell lung
[51] = test system: U251 CNS
[52] = test system: HT29 colon
[53] = test system: SK-MEL-2 melanoma
[54] = test system: DMS 114 small cell lung
[55] = test system: SNB-19 CNS
[56] = test system: KM12 colon
[57] = test system: A549 NSCLC
[58] = test system: UACC-257 melanoma

Cc1c(NC(=O)/C(=N/NC(=S)N=N)C2C(=O)CC(C)(C)CC2=O)c(O)c2ccccc2c1O
TGI [1]: 12 µM
TGI [2]: 6.5 µM
TGI [3]: 21.7 µM
TGI [4]: 37.6 µM
TGI [5]: 40.4 µM
TGI [6]: 18.8 µM
TGI [7]: 6 µM
TGI [8]: 29.6 µM
TGI [9]: 36.9 µM
TGI [10]: 23.3 µM
TGI [11]: 23.7 µM
TGI [12]: 13.7 µM
TGI [13]: 25.4 µM
TGI [14]: 27.6 µM
TGI [15]: 36.9 µM
TGI [16]: 45.6 µM
TGI [17]: 19.8 µM
TGI [18]: 64.9 µM
TGI [19]: 56.7 µM
TGI [20]: 25.5 µM
TGI [21]: 11.3 µM
TGI [22]: 35.7 µM
TGI [23]: 26.4 µM
TGI [24]: 27.7 µM
TGI [25]: 27.2 µM
TGI [26]: 30.4 µM
TGI [27]: 28.9 µM
TGI [28]: 11.9 µM
TGI [29]: 2.95 µM
TGI [30]: 27 µM
TGI [31]: 35.6 µM
TGI [32]: 31.7 µM
TGI [33]: 12.4 µM
TGI [34]: 62.8 µM
TGI [35]: 36 µM
TGI [36]: 22.7 µM
TGI [37]: 20.7 µM
TGI [38]: 20.1 µM
TGI [39]: 17.6 µM
TGI [40]: 32.2 µM
TGI [41]: 22.3 µM
TGI [42]: 18.5 µM
TGI [43]: 15.7 µM
TGI [44]: 58.8 µM
TGI [45]: 8.39 µM
TGI [46]: 14.9 µM
TGI [47]: 33.2 µM
TGI [48]: 21.1 µM
TGI [49]: 26.8 µM
TGI [50]: 22.4 µM
TGI [51]: 14 µM
TGI [52]: 33.6 µM
TGI [53]: 26.1 µM
TGI [54]: 4.17 µM
TGI [55]: 26.5 µM
TGI [56]: 22.1 µM
TGI [57]: 21.7 µM
TGI [58]: 14 µM
